Results on seven compounds are retold here after patent US6156754A, “Glycoconjugates of modified camptothecin derivatives (A-or B-ring linkage)” (Bayer Aktiengesellschaft, priority 1996, dated 2000).

Converted amounts (≈) assume the structure as drawn. Where a name gives a salt, the structure may show the parent alone.

One series concerns SW 480. Nature of the series: Growth inhibition (MTT) test, cytotoxic action on SW 480. Format: cell-based, human. The note with it: SW 480 cell line, growth checked after day 3 and day 6. As to the method: (§1) 1. Growth Inhibition Test for the Determination of the Cytotoxic Properties
(§2) The human large intestine cell lines SW 480 and HT 29 (ATCC No. CCL 228 and HBT 38) and the mouse melanoma cell line B 16 F 10 were grown in Roux dishes in RPMI 1640 medium with addition of 10% FCS. They were then trypsinized and taken up in RPMI plus 10% FCS to a cell count of 50,000 cells/ml. 100 μl of cell suspension/well were added to a 96 microwell plate and incubated for 1 day at 37° C. in a CO2 incubator. A further 100 μl of RPMI Medium and 1 μl of DMSO containing the test substances were then added. The growth was checked after day 3 and day 6. To this end, 40 μl of MTT solution (3-(4,5-dimethylthiazol-2-yl)-2,5-diphenyl-tetrazolium bromide) having a starting concentration of 5 mg/ml of H2 O were added to each microwell. Incubation was carried out for 5 hours in a CO2 incubator at 37° C. The medium was then aspirated and 100 μl of i-propanol/well were added. After shaking for 30 min with 100 μl of H2 O, the extinction was measured at 540 nm using a Titertek Multiscan MCC/340 (Flow).
(§3) The cytotoxic action is indicated in Table 1 as the IC50 value (dose which inhibits the cell growth to 50% of the cell growth of the control) in each case for the SW 480 and HT 29 and B16F10 cell lines: […]

In another series the test system is HT 29. The series can be described thus: Growth inhibition (MTT) test, cytotoxic action on HT 29. Format: cell-based, human. The note with it: HT 29 cell line, growth checked after day 3 and day 6. As to the method:
as §1, §2, §3

In a further series the test system is B16F10. The series can be described thus: Growth inhibition (MTT) test, cytotoxic action on B16F10. Format: cell-based, mouse. The note with it: B16F10 cell line, growth checked after day 3 and day 6. As to the method: as §1, §2, §3
Series [1] in a line: In vivo inhibition of tumour growth in the nude mouse model (LXFL 529 xenograft). Also noted: species or system human tumour in athymic nude mice (NMRI nu/nu). The note with it: mouse, in vivo, ip; nude mice, i.p. day 1, 2, 3; read-out: maximum tolerable dose (MTD). The procedure: (§4) 3. In Vivo Inhibition of Tumour Growth in the Nude Mouse Model
(§5) For all in vivo experiments for investigation of the inhibition of tumour growth athymic nude mice (NMRI nu/nu strain) were used. The selected large-cell lung carcinoma LXFL 529 was grown by serial passage in nude mice. The human origin of the tumour was confirmed by isoenzymatic and immunohistochemical methods.
(§6) The tumour was implanted subcutaneously into both flanks of 6 to 8 week old nu/nu nude mice. The treatment was started, depending on the doubling time, as soon as the tumours had reached a diameter of 5-7 mm. The mice were assigned to the treatment group and the control group (5 mice per group with 8-10 assessable tumours) by randomization. The individual tumours of the control group all grew progessively.
(§7) The size of the tumours was measured in two dimensions by means of a slide gauge. The tumour volume, which correlated well with the cell count, was then used for all evaluations. The volume was calculated according to the formula "length×breadth×breadth/2" ([a×b^2 ]/2, a and b represent two diameters at right angles).
(§8) The values of the relative tumour volume (RTV) were calculated for each individual tumour by dividing the tumour size on day X with the tumour size on day 0 (at the time of randomization). The mean values of the RTV were then used for the further evaluation.
(§9) The inhibition of the increase of the tumour volume (tumour volume of the test group/control group, T/C, in per cent) was the final measured value.
(§10) The administration of the compounds was carried out intraperitoneally (i.p.) on day 1, 2 and 3 after randomization.

In series [2] the test system is large-cell lung carcinoma LXFL 529. The description is as above. Also noted: species or system human tumour in athymic nude mice (NMRI nu/nu). The note with it: for Relative body weight on day 7 / Relative tumour volume on day 14 / Survival time: i.p. day 1, 2, 3; for Relative body weight on day 7: control 102; for Relative tumour volume on day 14: control 691; for Survival time: each of five mice. As to the method: as §4, §5, §6, §7, §8, §9, §10

For the next series, the system named is Bone marrow cells. Nature of the series: Haematopoietic activity: bone marrow stem cell colony formation. Format: cell-based, mice. The procedure: 2. Haematopoietic Activity of Glycoconjugates in Comparison with the Underlying Active Compound
Bone marrow cells are washed out of mice femurs. 10^5 cells are incubated at 37° C. and 7% CO2 in McCoy 5A medium (0.3% agar) together with recombinant murine GM-CSF (Genzyme; stem cell colony formation) and the substances (10^-4 to 100 μg/ml). 7 days later, the colonies ([…]) and clusters (17-50 cells) are counted.
As shown in Tab. 2 with reference to Example 2.1, the glycoconjugates investigated show, compared with the underlying active compound, an inhibition of the bone marrow stem cell proliferation which is reduced approximately by the factor 100.

With `CC[C@@]1(O)C(=O)OCc2c1cc1n(c2=O)Cc2c-1nc1ccccc1c2COC(=O)[C@H](C)NC(=O)[C@H](CCCCNC(=S)Nc1ccc(O[C@H]2O[C@@H](C)[C@@H](O)[C@@H](OC)[C@@H]2O)cc1)NC(=S)Nc1ccc(O[C@H]2O[C@@H](C)[C@@H](O)[C@@H](OC)[C@@H]2O)cc1` [Example 1.1, 7-{N^α,N^ε -bis-[O-(3-O-Methyl-β-L-fucopyranosyl)-4-hydroxy-phenylaminothiocarbonyl]-L-lysyl-L-alanyloxymethyl}-camptothecin], the IC50 with SW 480 was found to be 0.015 nM; in the series with HT 29, 0.025 nM; in the series with B16F10, 0.18 nM. Besides, in series [1], the MTD came out at 12.5 mg/kg/day. The “Relative body weight on day 7” value in series [2] (3.125 mg/kg/day) is listed as 93 % of day 0; in series [2] (6.25 mg/kg/day), 93 % of day 0; in series [2] (12.5 mg/kg/day (MTD)), 72 % of day 0. Further, the “Relative tumour volume on day 14” value in series [2] (3.125 mg/kg/day), in series [2] (6.25 mg/kg/day) and in series [2] (12.5 mg/kg/day (MTD)) was 0.1 % of day 0 in each case. Also, the Survival time in series [2] (3.125 mg/kg/day), in series [2] (6.25 mg/kg/day) and in series [2] (12.5 mg/kg/day (MTD)) was greater than 21 days each time. Besides, in series [2] (at MTD, 1/2 MTD and 1/4 MTD), the “therapeutic efficacy (remission of the tumour)” value is “complete remission of the tumour”.

With `CC[C@@]1(O)C(=O)OCc2c1cc1n(c2=O)Cc2c-1nc1ccccc1c2COC(=O)[C@@H](NC(=O)[C@H](CCCCN)NC(=S)Nc1ccc(O[C@H]2O[C@@H](C)[C@@H](O)[C@@H](OC)[C@@H]2O)cc1)C(C)C` [Example 1.4, 7-{N^α -[O-(3-O-Methyl-β-L-fucopyranosyl)-4-hydroxy-phenylamino-thiocarbonyl)-L-lysyl-L-valyoxymethyl}-camptothecin, Hydrochloride], the IC50 in the series with SW 480 was 0.03 nM; with HT 29, 0.04 nM; with B16F10, 0.2 nM.

For `CC[C@@]1(O)C(=O)OCc2c1cc1n(c2=O)Cc2cc3c(NC(=O)[C@H](C)NC(=O)[C@H](CCCCNC(=S)Nc4ccc(O[C@H]5O[C@@H](C)[C@@H](O)[C@@H](OC)[C@@H]5O)cc4)NC(=S)Nc4ccc(O[C@H]5O[C@@H](C)[C@@H](O)[C@@H](OC)[C@@H]5O)cc4)cccc3nc2-1` [Example 2.1, 9-{N^α,N^ε -bis-[O-(3-O-Methyl-β-L-fucopyranosyl)-4-hydroxy-phenylamino-thiocarbonyl]-L-lysyl-L-alanyl-amino}-camptothecin], the IC50 in the series on SW 480 stood at 0.2 nM; in the series on HT 29, 0.06 nM; with B16F10 it was 2 nM. For the same compound, the “reduction of inhibition of bone marrow stem cell proliferation compared with the underlying active compound (factor)” value in the series with Bone marrow cells (glycoconjugate vs underlying active compound (2.1.a)) is on record as roughly 100. Further, the “IC50 (inhibition of bone marrow stem cell proliferation)” value with Bone marrow cells (mouse bone marrow cells with GM-CSF, 7 days) is 170 ng/mL.

For `CCC1(O)C(=O)OCc2c1cc1n(c2=O)Cc2c-1nc1cc3c(cc1c2CN1CCN(C(=O)[C@H](C)NC(=O)[C@H](CCCCNC(=S)Nc2ccc(O[C@H]4O[C@@H](C)[C@@H](O)[C@@H](OC)[C@@H]4O)cc2)NC(=S)Nc2ccc(O[C@H]4O[C@@H](C)[C@@H](O)[C@@H](OC)[C@@H]4O)cc2)CC1)OCCO3` (mixture of isomers) [Example 3.1], the IC50 in the series on SW 480 worked out at 0.08 nM; in the series with HT 29, 0.06 nM; with B16F10, 0.5 nM.

Consider `CC[C@@]1(O)C(=O)OCc2c1cc1n(c2=O)Cc2c-1nc1ccccc1c2COC(=O)[C@@H](NC(=O)[C@H](CCCCN)NC(=S)Nc1ccc(O[C@H]2O[C@@H](C)[C@@H](O)[C@@H](OCC(=O)O)[C@@H]2O)cc1)C(C)C` [Example 1.3, 7-{N^α -[O-(3-O-Carboxymethyl-β-L-fucopyranosyl)-4-hydroxy-phenylamino-thiocarbonyl]-L-lysyl-L-valyloxymethyl}-camptothecin, hydrochloride], for which the IC50 stood at 0.04 nM with SW 480 and 0.03 nM in the series on HT 29.

With `CC[C@@]1(O)C(=O)OCc2c1cc1n(c2=O)Cc2cc3c(N)cccc3nc2-1` [Example 2.1.a, 9-Amino-camptothecin, reference compound], the IC50 in the series on Bone marrow cells (Bone marrow cell, 168 h, mouse bone marrow cells with GM-CSF, 7 days, read-out: IC50 (inhibition of bone marrow stem cell proliferation)) amounted to 1.6 ng/mL (≈ 4.4 nM).

`CCC1(O)C(=O)OCc2c1cc1n(c2=O)Cc2c-1nc1cc3c(cc1c2CN1CCN(C(=O)[C@H](C)NC(=O)[C@H](CCCCN)NC(=S)Nc2ccc(O[C@H]4O[C@@H](C)[C@@H](O)[C@@H](OCC(=O)O)[C@@H]4O)cc2)CC1)OCCO3` (mixture of isomers) [Example 3.3, 10,11-(Ethylenedioxy)-7-{1-[N^α -(O-(3-O-carboxymethyl-β-L-fucopyranosyl)-4-hydroxy-phenylaminothiocarbonyl]-L-lysyl-L-alanyl]-piperazin-4-yl-methyl}-20(R/S)-camptothecin, hydrochloride]: the IC50 with SW 480 amounted to 0.25 nM; in the series on HT 29 it was 0.1 nM.
